Measured values from patent publication US10550111B2, “Pyrimidine urea compound containing isoxazolines and use thereof” (SHENYANG SINOCHEM AGROCHEMICALS R&D CO., LTD, priority 2014, dated 2020).

Experiments:
Cyperus glomeratus L. = test: Weed spectrum study in greenhouse; assay type: in vivo
Text: Seeds of monocotyledonous and dicotyledonous weeds were sown in nutrition soil in paper pot (7 cm diameter), covered with soil in 1 cm and grown in the greenhouse under good growth conditions (temperature, atmospheric humidity, water supply). The compounds of the present invention as emulsifiable concentrate, were applied in pre-emergence and post-emergence treatment by track sprayer (Engineer Research Ltd., pressure 1.95 kg/cm^2, volume 500 L/hm^2, track speed 1.48 km/h). Pre-emergence treatment was conducted after seeding 24 hours and post-emergence treatment was done when the respective weeds reached predetermined leaf stage ([…]), the state of growth of the respective weeds were visually observed to determine the growth inhibition rate (%) in accordance with the following evaluation standard.
(§1) Growth inhibition rate (%): 0=no discernible action: 100=all weeds dead or not emerged.
(§2) The method is as example 18.

[1] = tested on: broad-leaf weeds and grass weeds; test: General screening of herbicidal activity in greenhouse; assay type: in vivo; conditions: 1000 g a.i./hm^2
Procedure, shortened: (§3)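 Visual growth inhibition rating (0 no effect to 100 all weeds dead or not emerged) after track-sprayer application (500 L/hm²) of emulsifiable concentrate. Treatments either pre-emergence, 24 h after sowing, or post-emergence at 2–3-leaf grass and 2–4-leaf broad-leaf stage, greenhouse-grown.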

broad-leaf weeds = test: Field trial, weed control in orchard (non-cultivated land); assay type: in vivo
Description: (§4) The field trial was conducted in an orchard located at Liaoyang city, Liaoning province, China; the orchard planted mainly apple trees and almond trees, plum trees and pear trees as well, weeding control were conducted three times one year by application of paraquat. Weeds were distributed uniformity and moderate density, mainly of broad-leaf weeds including Conyza canadensis (L.)Cronq., Sonchus brachyotus DC., Polygonum aviculare L., Humulus scandens (Lour.) Merr., Ixeridium sonchifolium (Maxim.) Shih, Galium aparine L. var. tenerum Gren. et (Godr.) Rebb., Rumex japonicus Houtt. and Metaplexis japonica (Thunb.) Makino, partly of grass weed was Digitaria sanguinalis (L.) Scop., average height range was between 30 and 40 cm. sprayer was knapsack hand-operated sprayer(AGROLEX HD400) produced by AGROLEx PTE Ltd., spray volume was 675 L/hm^2, processing date was Jul. 3, 2015. On the 15th day after application, weeds were visually observed to determine the growth inhibition rate (%).

weeds = test: as above; assay type: in vivo
Description: as §4

[2] = tested on: Arthraxon hispidus (Thunb.) Makino; test: Weed spectrum study in greenhouse; assay type: in vivo
Text: (§5) Seeds of monocotyledonous and dicotyledonous weeds were sown in nutrition soil in paper pot (7 cm diameter), covered with soil in 1 cm and grown in the greenhouse under good growth conditions (temperature, atmospheric humidity, water supply). The compounds of the present invention as emulsifiable concentrate, were applied in pre-emergence and post-emergence treatment by track sprayer (Engineer Research Ltd., pressure 1.95 kg/cm^2, volume 500 L/hm^2, track speed 1.48 km/h). Pre-emergence treatment was conducted after seeding 24 hours and post-emergence treatment was done when the respective weeds reached predetermined leaf stage (grass weed 2- to 3-leaf stage, broad-leaf weed 2- to 4-leaf stage), the state of growth of the respective weeds were visually observed to determine the growth inhibition rate (%) in accordance with the following evaluation standard.
as §1, §2

Cyperus difformis L. = test: Weed spectrum study in greenhouse; assay type: in vivo
Text: as §5, §1, §2

[3] = tested on: Digitaria sanguinalis (L.); test: Weed spectrum study in greenhouse; assay type: in vivo
Text: as §5, with “([…],” for “(grass weed 2- to 3-leaf stage,”
as §1, §2

grass weed = test: Field trial, weed control in orchard (non-cultivated land); assay type: in vivo, Digitaria sanguinalis (L.) Scop.
Description: as §4

[4] = tested on: Echinochloa crus-galli (L.) Beauv.; test: Bioassay of herbicidal activity in greenhouse (further screening); assay type: in vivo
Procedure, shortened: as §3

[5] = tested on: Setaria glauca (L.) Beauv.; test: as above; assay type: in vivo
Procedure, shortened: as §3

Zinnia elegans Jacq. = test: as above; assay type: in vivo
Procedure, shortened: as §3

[6] = tested on: Abutilon theophrasti Medic.; test: as above; assay type: in vivo
Procedure, shortened: as §3

[7] = tested on: Amaranthus retroflexus L.; test: Weed spectrum study in greenhouse; assay type: in vivo
Text: as §5, with “[…]),” for “broad-leaf weed 2- to 4-leaf stage),”
as §1, §2

[8] = dose 60 g a.i./hm^2, 15th day after application
[9] = dose 120 g a.i./hm^2, 15th day after application
[10] = dose 180 g a.i./hm^2, 15th day after application
[11] = dose 240 g a.i./hm^2, 15th day after application
[12] = dose 300 g a.i./hm^2, 15th day after application
[13] = pre-emergence, dose 600 g a.i./hm^2

SMILES: CCOC(=O)C1(C)CC(c2cc(-n3c(=O)cc(C(F)(F)F)n(C)c3=O)c(F)cc2Cl)=NO1 (stereo not drawn) [Compound 6]
- Growth inhibition rate, Cyperus glomeratus L. (5-leaf stage) (Cyperus glomeratus L.; dose 7.5 g a.i./hm^2): 80%
- Growth inhibition rate, Cyperus glomeratus L. (5-leaf stage) (Cyperus glomeratus L.; dose 15 g a.i./hm^2): 80%
- Growth inhibition rate, Cyperus glomeratus L. (5-leaf stage) (Cyperus glomeratus L.; dose 30 g a.i./hm^2): 90%
- Growth inhibition rate, Cyperus glomeratus L. (5-leaf stage) (Cyperus glomeratus L.; dose 60 g a.i./hm^2): 100%
- Growth inhibition rate, Cyperus glomeratus L. (5-leaf stage) (Cyperus glomeratus L.; dose 120 g a.i./hm^2): 100%
- pre-emergence and post-emergence herbicidal activity against broad-leaf weeds and grass weeds [1]: good
- Growth inhibition rate (%) of broad-leaf weeds (broad-leaf weeds; [8]): 85.0%
- Growth inhibition rate (%) of broad-leaf weeds (broad-leaf weeds; [9]): 93.3%
- Growth inhibition rate (%) of broad-leaf weeds (broad-leaf weeds; [10]): 94.3%
- Growth inhibition rate (%) of broad-leaf weeds (broad-leaf weeds; [11]): 97.0%
- Growth inhibition rate (%) of broad-leaf weeds (broad-leaf weeds; [12]): 92.7%
- Total growth inhibition rate (%) of weeds (weeds; [8]): 81.7%
- Total growth inhibition rate (%) of weeds (weeds; [9]): 91.7%
- Total growth inhibition rate (%) of weeds (weeds; [10]): 91.7%
- Total growth inhibition rate (%) of weeds (weeds; [11]): 93.3%
- Total growth inhibition rate (%) of weeds (weeds; [12]): 98.7%
- Growth inhibition rate, Arthraxon hispidus (Thunb.) Makino (3-leaf stage) ([2]; dose 7.5 g a.i./hm^2): 60%
- Growth inhibition rate, Arthraxon hispidus (Thunb.) Makino (3-leaf stage) ([2]; dose 15 g a.i./hm^2): 85%
- Growth inhibition rate, Arthraxon hispidus (Thunb.) Makino (3-leaf stage) ([2]; dose 30 g a.i./hm^2): 90%
- Growth inhibition rate, Arthraxon hispidus (Thunb.) Makino (3-leaf stage) ([2]; dose 60 g a.i./hm^2): 100%
- Growth inhibition rate, Arthraxon hispidus (Thunb.) Makino (3-leaf stage) ([2]; dose 120 g a.i./hm^2): 100%
- Growth inhibition rate, Cyperus difformis L. (4,5-leaf stage) (Cyperus difformis L.; dose 7.5 g a.i./hm^2): 30%
- Growth inhibition rate, Cyperus difformis L. (4,5-leaf stage) (Cyperus difformis L.; dose 15 g a.i./hm^2): 60%
- Growth inhibition rate, Cyperus difformis L. (4,5-leaf stage) (Cyperus difformis L.; dose 30 g a.i./hm^2): 90%
- Growth inhibition rate, Cyperus difformis L. (4,5-leaf stage) (Cyperus difformis L.; dose 60 g a.i./hm^2): 95%
- Growth inhibition rate, Cyperus difformis L. (4,5-leaf stage) (Cyperus difformis L.; dose 120 g a.i./hm^2): 100%
- Growth inhibition rate, Digitaria sanguinalis (L.) (4,5-leaf stage) ([3]; dose 7.5 g a.i./hm^2): 80%
- Growth inhibition rate, Digitaria sanguinalis (L.) (4,5-leaf stage) ([3]; dose 15 g a.i./hm^2): 90%
- Growth inhibition rate, Digitaria sanguinalis (L.) (4,5-leaf stage) ([3]; dose 30 g a.i./hm^2): 100%
- Growth inhibition rate, Digitaria sanguinalis (L.) (4,5-leaf stage) ([3]; dose 60 g a.i./hm^2): 100%
- Growth inhibition rate, Digitaria sanguinalis (L.) (4,5-leaf stage) ([3]; dose 120 g a.i./hm^2): 100%
- Growth inhibition rate (%) of grass weed (grass weed; [8]): 61.7%
- Growth inhibition rate (%) of grass weed (grass weed; [9]): 71.7%
- Growth inhibition rate (%) of grass weed (grass weed; [10]): 83.3%
- Growth inhibition rate (%) of grass weed (grass weed; [11]): 88.3%
- Growth inhibition rate (%) of grass weed (grass weed; [12]): 94.3%
- Growth inhibition rate, Post-emergence treatment, Echinochloa crus-galli (L.) Beauv. ([4]; dose 7.5 g a.i./hm^2): 70%
- Growth inhibition rate, Post-emergence treatment, Echinochloa crus-galli (L.) Beauv. ([4]; dose 15 g a.i./hm^2): 98%
- Growth inhibition rate, Post-emergence treatment, Echinochloa crus-galli (L.) Beauv. ([4]; dose 30.0 g a.i./hm^2): 98%
- Growth inhibition rate, Post-emergence treatment, Echinochloa crus-galli (L.) Beauv. ([4]; dose 60.0 g a.i./hm^2): 100%
- Growth inhibition rate, Post-emergence treatment, Echinochloa crus-galli (L.) Beauv. ([4]; dose 120.0 g a.i./hm^2): 100%
- Growth inhibition rate, Post-emergence treatment, Echinochloa crus-galli (L.) Beauv. ([4]; dose 600 g a.i./hm^2): 100%
- Growth inhibition rate, Pre-emergence treatment, Echinochloa crus-galli (L.) Beauv. [4, 13]: 70%
- Growth inhibition rate, Post-emergence treatment, Setaria glauca (L.) Beauv. ([5]; dose 7.5 g a.i./hm^2): 85%
- Growth inhibition rate, Post-emergence treatment, Setaria glauca (L.) Beauv. ([5]; dose 15 g a.i./hm^2): 98%
- Growth inhibition rate, Post-emergence treatment, Setaria glauca (L.) Beauv. ([5]; dose 30.0 g a.i./hm^2): 95%
- Growth inhibition rate, Post-emergence treatment, Setaria glauca (L.) Beauv. ([5]; dose 60.0 g a.i./hm^2): 100%
- Growth inhibition rate, Post-emergence treatment, Setaria glauca (L.) Beauv. ([5]; dose 120.0 g a.i./hm^2): 100%
- Growth inhibition rate, Post-emergence treatment, Setaria glauca (L.) Beauv. ([5]; dose 600 g a.i./hm^2): 100%
- Growth inhibition rate, Pre-emergence treatment, Setaria glauca (L.) Beauv. [5, 13]: 55%
- Growth inhibition rate, Post-emergence treatment, Zinnia elegans Jacq. (Zinnia elegans Jacq.; dose 7.5 g a.i./hm^2): 95%
- Growth inhibition rate, Post-emergence treatment, Zinnia elegans Jacq. (Zinnia elegans Jacq.; dose 15 g a.i./hm^2): 98%
- Growth inhibition rate, Post-emergence treatment, Zinnia elegans Jacq. (Zinnia elegans Jacq.; dose 30.0 g a.i./hm^2): 100%
- Growth inhibition rate, Post-emergence treatment, Zinnia elegans Jacq. (Zinnia elegans Jacq.; dose 60.0 g a.i./hm^2): 100%
- Growth inhibition rate, Post-emergence treatment, Zinnia elegans Jacq. (Zinnia elegans Jacq.; dose 120.0 g a.i./hm^2): 100%
- Growth inhibition rate, Post-emergence treatment, Zinnia elegans Jacq. (Zinnia elegans Jacq.; dose 600 g a.i./hm^2): 100%
- Growth inhibition rate, Pre-emergence treatment, Zinnia elegans Jacq. (Zinnia elegans Jacq.; [13]): 55%
- Growth inhibition rate, Post-emergence treatment, Abutilon theophrasti Medic. ([6]; dose 7.5 g a.i./hm^2): 100%
- Growth inhibition rate, Post-emergence treatment, Abutilon theophrasti Medic. ([6]; dose 15 g a.i./hm^2): 100%
- Growth inhibition rate, Post-emergence treatment, Abutilon theophrasti Medic. ([6]; dose 30.0 g a.i./hm^2): 100%
- Growth inhibition rate, Post-emergence treatment, Abutilon theophrasti Medic. ([6]; dose 60.0 g a.i./hm^2): 100%
- Growth inhibition rate, Post-emergence treatment, Abutilon theophrasti Medic. ([6]; dose 120.0 g a.i./hm^2): 100%
- Growth inhibition rate, Post-emergence treatment, Abutilon theophrasti Medic. ([6]; dose 600 g a.i./hm^2): 100%
- Growth inhibition rate, Pre-emergence treatment, Abutilon theophrasti Medic. [6, 13]: 100%
- Growth inhibition rate, Amaranthus retroflexus L. (height 10-15 cm) ([7]; dose 7.5 g a.i./hm^2): 90%
- Growth inhibition rate, Amaranthus retroflexus L. (height 10-15 cm) ([7]; dose 15 g a.i./hm^2): 98%
- Growth inhibition rate, Amaranthus retroflexus L. (height 10-15 cm) ([7]; dose 30 g a.i./hm^2): 100%
- Growth inhibition rate, Amaranthus retroflexus L. (height 10-15 cm) ([7]; dose 60 g a.i./hm^2): 100%
- Growth inhibition rate, Amaranthus retroflexus L. (height 10-15 cm) ([7]; dose 120 g a.i./hm^2): 100%
